What is called IC50 is the concentration that gives 50% inhibition.

The record followed here is US20240270759A1, “Preparation of SHP2 phosphatase inhibitors and its applications” (Ya Therapeutics Inc, priority 2021, published 2024).

For this assay, the target named is T1, SHP2 full-length protein (Homo sapiens, UniProt Q06124).
T1 construct: purchased BPS Bioscience #79330
T1 sequence (Q06124 1-593): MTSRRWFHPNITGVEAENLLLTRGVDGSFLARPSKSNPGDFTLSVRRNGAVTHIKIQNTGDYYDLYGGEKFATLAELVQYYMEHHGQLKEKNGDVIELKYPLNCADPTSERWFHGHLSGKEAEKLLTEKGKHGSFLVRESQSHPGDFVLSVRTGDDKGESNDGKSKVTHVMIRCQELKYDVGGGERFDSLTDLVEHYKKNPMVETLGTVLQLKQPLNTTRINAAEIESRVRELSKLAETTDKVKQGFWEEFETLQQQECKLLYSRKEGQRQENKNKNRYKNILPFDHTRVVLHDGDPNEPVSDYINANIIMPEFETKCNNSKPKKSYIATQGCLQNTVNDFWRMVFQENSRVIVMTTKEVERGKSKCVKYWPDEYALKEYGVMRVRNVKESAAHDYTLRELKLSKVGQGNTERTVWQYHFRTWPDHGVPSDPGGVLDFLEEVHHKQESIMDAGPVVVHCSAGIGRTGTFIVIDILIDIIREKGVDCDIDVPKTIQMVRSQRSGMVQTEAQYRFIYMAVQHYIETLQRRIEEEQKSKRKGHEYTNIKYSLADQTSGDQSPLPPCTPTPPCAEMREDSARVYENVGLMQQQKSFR
As to the kind of experiment: SHP2 allosteric inhibition experiment (Homogeneous Full Length SHP-2 Assay Kit). The format is biochemical. Particulars: full-length SHP2 0.06 nM with SHP-2 activating peptide; ten-point, 1 μM to 0.05 nM; read-out: IC50 Values of Compounds Inhibiting SHP2.
On to `C[C@@H]1OCC2(CCN(c3ncc(Sc4cccc(NC(=O)c5ccncn5)c4Cl)cn3)CC2)[C@@H]1N` [Compound 124, N-(3-((2-((3S,4S)-4-amino-3-methyl-2-oxa-8-azaspiro[4.5]decane-8-yl of 1)pyrimidine-5-yl)mercapto)-2-chlorophenyl)pyrimidine-4-carboxamide], for which the half-maximal inhibitory concentration (IC50) is no more than 0.01 µM.
The figure for `C[C@@H]1OCC2(CCN(c3ncc(Sc4cccc(NC(=O)c5ccccn5)c4Cl)cn3)CC2)[C@@H]1N` [Compound 125, N-(3-((2-((3S,4S)-4-amino-3-methyl-2-oxa-8-azaspiro[4.5]decane-8-yl)pyrimidine-5-yl)mercapto)-2-chlorophenyl)pyridine-2-carboxamide] is no more than 0.01 µM; for `C[C@@H]1OCC2(CCN(c3ncc(Sc4cccc(NC(=O)c5cnccn5)c4Cl)cn3)CC2)[C@@H]1N` [Compound 126, N-(3-((2-((3S,4S)-4-amino-3-methyl-2-oxa-8-azaspiro[4.5]decane-8-yl)pyrimidine-5-yl)mercapto)-2-chlorophenyl)pyrazine-2-carboxamide] it is no more than 0.01 µM; for `CCn1ccc(-c2cccc(Sc3ccc(N4CCC5(CC4)CO[C@@H](C)[C@H]5N)nn3)c2Cl)n1` [Compound 127, (3S,4S)-8-(3-((2-chloro-3-(1-ethyl-1H-pyrazole-3-yl)phenyl)mercapto)pyridazine-6-yl)-3-methyl-2-oxa-8-azaspiro[4.5]decane-4-amine] it is no more than 0.01 µM.
The figure for `CCn1ccc(-c2cccc(Sc3nnc(N4CCC5(CC4)CO[C@@H](C)[C@H]5N)nn3)c2Cl)n1` [Compound 128, (3S,4S)-8-(3-((2-chloro-3-(1-ethyl-1H-pyrazole-3-yl)phenyl)mercapto)-tetrazine-6-yl)-3-methyl-2-oxa-8-azaspiro[4.5]decane-4-amine] is no more than 0.01 µM.
The value for `CCn1ccc(-c2cccc(Sc3ncc(N4CCC5(CC4)CO[C@@H](C)[C@H]5N)nn3)c2Cl)n1` [Compound 129, (3S,4S)-8-(3-((2-chloro-3-(1-ethyl-1H-pyrazole-3-yl)phenyl)mercapto)-1,2,4-triazine-6-yl)-3-methyl-2-oxa-8-azaspiro[4.5]decane-4-amine] was no more than 0.01 µM; that for `C[C@@H]1OCC2(CCN(c3ncc(Sc4cccc(NC(=O)c5c(O)nc6n(c5=O)CCCC6)c4Cl)nn3)CC2)[C@@H]1N` [Compound 130, N-(3-((2-((3S,4S)-4-amino-3-methyl-2-oxa-8-azaspiro[4.5]decane-8-yl)-1,2,4-triazine-6-yl)mercapto)-2-chlorophenyl)-2-hydroxy-4-oxo-6,7,8,9-tetrahydro-4H-pyridinyl[1,2-a]pyrimidine-3-carboxamide] was no more than 0.01 µM; that for `CCn1ccc(-c2cccc(Sc3cnc(N4CCC5(CC4)CO[C@@H](C)[C@H]5N)nn3)c2Cl)n1` [Compound 131, (3S,4S)-8-(6-((2-chloro-3-(1-ethyl-1H-pyrazole-3-yl)phenyl)mercapto)-1,2,4-triazine-3-yl)-3-methyl-2-oxa-8-azaspiro[4.5]decane-4-amine] was no more than 0.01 µM.
As for `C[C@@H]1OCC2(CCN(c3ccc(Sc4cccc(-c5cnccn5)c4Cl)nn3)CC2)[C@@H]1N` [Compound 132, (3S,4S)-8-(3-((2-chloro-3-(pyrazine-2-yl)phenyl)mercapto)pyridazine-6-yl)-3-methyl-2-oxa-8-azaspiro[4.5]decane-4-amine], the IC50 is no more than 0.01 µM.
The figure for `C[C@@H]1OCC2(CCN(c3nnc(Sc4cccc(-c5cnccn5)c4Cl)nn3)CC2)[C@@H]1N` [Compound 133, (3S,4S)-8-(3-((2-chloro-3-(pyrazine-2-yl)phenyl)mercapto)-tetrazine-6-yl)-3-methyl-2-oxa-8-azaspiro[4.5]decane-4-amine] is no more than 0.01 µM; for `C[C@@H]1OCC2(CCN(c3cnc(Sc4cccc(-c5cnccn5)c4Cl)nn3)CC2)[C@@H]1N` [Compound 134, (3S,4S)-8-(3-((2-chloro-3-(pyrazine-2-yl)phenyl)mercapto)-1,2,4-triazine-6-yl)-3-methyl-2-oxa-8-azaspiro[4.5]decane-4-amine] it is no more than 0.01 µM.
The figure for `C[C@@H]1OCC2(CCN(c3ncc(Sc4cccc(-c5cnccn5)c4Cl)nn3)CC2)[C@@H]1N` [Compound 135, (3S,4S)-8-(6-((2-chloro-3-(pyrazine-2-yl)phenyl)mercapto)-1,2,4-triazine-3-yl)-3-methyl-2-oxa-8-azaspiro[4.5]decane-4-amine] is no more than 0.01 µM; for `C[C@@H]1OCC2(CCN(c3nnc(Sc4cccc(NC(=O)c5c(O)nc6n(c5=O)CCCC6)c4Cl)nn3)CC2)[C@@H]1N` [Compound 137, N-(3-((5-((3S,4S)-4-amino-3-methyl-2-oxa-8-azaspiro[4.5]decane-8-yl)s-tetrazine-3-yl)mercapto)-2-chlorophenyl)-2-hydroxy-4-oxa-6,7,8,9-tetrahydro-4H-pyridinyl[1,2-a]pyrimidine-3-carboxamide] it is no more than 0.01 µM.
The figure for “N-(3-((5-((3S,4S)-4-amino-3-methyl-2-oxa-8-azaspiro[4.5]decane-8-yl)-1,2,4-triazine-3-yl)mercapto)-2-chlorobenzene)-2-hydroxy-4-oxa-6,7,8,9-tetrahydro-4H-pyridinyl[1,2-a]pyrimidine-3-carboxamide [Compound 138]” is no more than 0.01 µM; for “N-(3-((5-((3S,4S)-4-amino-3-methyl-2-oxa-8-azaspiro[4.5]decane-8-yl)pyridazine-3-yl) mercapto)-2-chlorophenyl)-2-hydroxy-4-oxa-6,7,8,9-tetrahydro-4H-pyridinyl[1,2-a]pyrimidine-3-carboxamide [Compound 136]” it is no more than 0.01 µM.
